ChEMBL document CHEMBL1141240, “N-8-Substituted benztropinamine analogs as selective dopamine transporter ligands” (Bioorg Med Chem Lett, 2005)

Tests used:
[1] = molecular target: Sodium-dependent noradrenaline transporter (Homo sapiens, UniProt P23975); assay: Displacement of [3H]nisoxetine from NET
[2] = Selectivity of Muscarinic receptor M1 over DAT
[3] = molecular target: Sodium-dependent serotonin transporter (Homo sapiens, UniProt P31645); assay: Displacement of [3H]citalopram from SERT
[4] = molecular target: T1, Muscarinic acetylcholine receptor M1 (Homo sapiens, UniProt P11229); assay: Displacement of [3H]pirenzepine from Muscarinic receptor M1
T1 sequence (P11229 whole entry): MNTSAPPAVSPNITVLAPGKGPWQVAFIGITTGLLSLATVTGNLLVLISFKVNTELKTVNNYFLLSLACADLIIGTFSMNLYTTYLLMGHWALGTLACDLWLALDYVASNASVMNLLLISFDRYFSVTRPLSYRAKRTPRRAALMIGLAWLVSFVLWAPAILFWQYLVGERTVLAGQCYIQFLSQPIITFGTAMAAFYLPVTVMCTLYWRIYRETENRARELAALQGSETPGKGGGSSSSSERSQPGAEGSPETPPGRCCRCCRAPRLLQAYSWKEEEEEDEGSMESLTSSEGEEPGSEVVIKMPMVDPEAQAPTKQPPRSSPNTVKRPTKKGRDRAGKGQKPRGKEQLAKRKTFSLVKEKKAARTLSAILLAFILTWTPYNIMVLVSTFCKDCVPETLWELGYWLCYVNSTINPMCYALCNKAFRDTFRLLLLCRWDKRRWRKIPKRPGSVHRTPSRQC

[5] = Selectivity of NET over DAT
[6] = Selectivity of SERT over DAT
[7] = molecular target: Sodium-dependent dopamine transporter (Rattus norvegicus, UniProt P23977); assay: Displacement of [3H]WIN-from DAT in rat brain membrane; format: cell membranes
Sodium-dependent dopamine transporter, sequence (P23977 whole entry): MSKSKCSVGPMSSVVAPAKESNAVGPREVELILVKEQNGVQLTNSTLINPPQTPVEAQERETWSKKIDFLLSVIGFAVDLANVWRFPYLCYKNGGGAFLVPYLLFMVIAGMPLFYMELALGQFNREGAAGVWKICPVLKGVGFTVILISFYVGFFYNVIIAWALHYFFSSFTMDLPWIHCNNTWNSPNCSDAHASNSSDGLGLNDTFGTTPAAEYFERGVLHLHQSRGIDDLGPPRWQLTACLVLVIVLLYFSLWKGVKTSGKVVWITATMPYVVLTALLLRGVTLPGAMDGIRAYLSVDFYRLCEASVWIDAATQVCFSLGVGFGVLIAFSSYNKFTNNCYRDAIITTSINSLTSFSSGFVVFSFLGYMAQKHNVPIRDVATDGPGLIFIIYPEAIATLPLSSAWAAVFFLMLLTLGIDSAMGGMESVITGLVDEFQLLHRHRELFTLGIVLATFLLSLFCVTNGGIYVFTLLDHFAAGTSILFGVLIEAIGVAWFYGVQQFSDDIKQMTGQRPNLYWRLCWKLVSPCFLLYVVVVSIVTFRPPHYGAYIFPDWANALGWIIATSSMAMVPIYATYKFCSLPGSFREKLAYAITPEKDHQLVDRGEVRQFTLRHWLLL

Sodium-dependent noradrenaline transporter, sequence (P23975 whole entry): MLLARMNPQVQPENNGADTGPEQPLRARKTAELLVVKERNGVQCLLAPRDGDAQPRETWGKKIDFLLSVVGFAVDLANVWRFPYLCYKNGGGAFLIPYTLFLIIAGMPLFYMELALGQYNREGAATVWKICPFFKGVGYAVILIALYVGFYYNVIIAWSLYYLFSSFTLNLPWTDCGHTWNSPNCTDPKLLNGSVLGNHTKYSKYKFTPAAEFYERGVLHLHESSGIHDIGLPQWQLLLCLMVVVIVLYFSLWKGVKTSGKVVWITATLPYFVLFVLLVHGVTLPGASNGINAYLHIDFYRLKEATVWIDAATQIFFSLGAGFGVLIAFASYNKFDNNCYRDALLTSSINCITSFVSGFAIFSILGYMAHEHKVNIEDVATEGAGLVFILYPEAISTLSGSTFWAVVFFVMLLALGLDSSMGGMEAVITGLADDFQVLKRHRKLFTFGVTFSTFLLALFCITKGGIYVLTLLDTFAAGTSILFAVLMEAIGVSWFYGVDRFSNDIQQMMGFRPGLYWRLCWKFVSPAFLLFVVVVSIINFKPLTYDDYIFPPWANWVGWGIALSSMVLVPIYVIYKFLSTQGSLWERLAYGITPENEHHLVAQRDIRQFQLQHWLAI
Sodium-dependent serotonin transporter, sequence (P31645 whole entry): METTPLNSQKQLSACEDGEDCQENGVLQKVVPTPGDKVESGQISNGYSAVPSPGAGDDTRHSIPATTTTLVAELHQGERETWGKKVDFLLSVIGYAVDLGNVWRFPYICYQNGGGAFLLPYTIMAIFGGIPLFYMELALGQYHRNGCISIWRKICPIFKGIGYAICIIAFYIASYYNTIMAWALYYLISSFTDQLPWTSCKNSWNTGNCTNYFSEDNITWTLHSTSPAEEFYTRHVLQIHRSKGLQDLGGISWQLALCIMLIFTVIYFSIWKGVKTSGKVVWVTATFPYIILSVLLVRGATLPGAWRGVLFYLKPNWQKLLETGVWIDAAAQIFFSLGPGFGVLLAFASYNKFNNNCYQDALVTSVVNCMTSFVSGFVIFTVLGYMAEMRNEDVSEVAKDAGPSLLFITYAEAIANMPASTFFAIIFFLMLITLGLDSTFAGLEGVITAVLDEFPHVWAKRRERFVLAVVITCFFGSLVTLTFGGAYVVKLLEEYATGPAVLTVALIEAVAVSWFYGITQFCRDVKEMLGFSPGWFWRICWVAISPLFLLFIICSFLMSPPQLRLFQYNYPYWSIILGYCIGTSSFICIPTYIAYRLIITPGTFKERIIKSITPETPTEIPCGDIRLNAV

SMILES	Ki [1] [µM]	Ratio Ki [2]	Ki [3] [µM]	Ki [4] [nM]	Ratio Ki [5]	Ratio Ki [6]	Ki [7] [nM]
CN1[C@@H]2CC[C@H]1C[C@@H](NC(c1ccccc1)c1ccc(Cl)cc1)C2 (stereo partly specified)	3.17	0.3	13.6	9.3	87	373	
O=C(CCN1[C@@H]2CC[C@H]1C[C@@H](NC(c1ccc(F)cc1)c1ccc(F)cc1)C2)Nc1ccccc1	2.47	551	0.608	2540	536	132	
CN1[C@@H]2CC[C@H]1C[C@H](NC(c1ccc(F)cc1)c1ccc(F)cc1)C2	152	0.1	48.5	59.4	230	73	
CN1[C@@H]2CC[C@H]1C[C@@H](NC(c1ccc(Cl)c(Cl)c1)c1ccc(Cl)c(Cl)c1)C2	0.259	3	3.01	17.8	48	563	
CN(C(c1ccc(F)cc1)c1ccc(F)cc1)[C@H]1C[C@H]2CC[C@@H](C1)N2C	8.41	0.2	17.2	18.6	68	140	
Fc1ccc(C(N[C@H]2C[C@H]3CC[C@@H](C2)N3CCc2c[nH]c3ccccc23)c2ccc(F)cc2)cc1	8.25		0.347	413			
C=CCN1[C@@H]2CC[C@H]1C[C@@H](NC(c1ccc(F)cc1)c1ccc(F)cc1)C2	5.58	5	3.92	130	208	146	
CCCCN1[C@@H]2CC[C@H]1C[C@@H](NC(c1ccc(F)cc1)c1ccc(F)cc1)C2	2.92	21	2.64	454	136	123	
CN1C2CCC1CC(OC(c1ccc(F)cc1)c1ccc(F)cc1)C2 (stereo unspecified) [DIFLUOROBENZTROPINE]	0.844		3.26	11.6			
Fc1ccc(C(N[C@H]2C[C@H]3CC[C@@H](C2)N3)c2ccc(F)cc2)cc1	0.997	18	4.15	154	118	491	
Fc1ccc(C(O[C@H]2C[C@H]3CC[C@@H](C2)N3CCc2c[nH]c3ccccc23)c2ccc(F)cc2)cc1							29.2
CN1[C@@H]2CC[C@H]1C[C@@H](NC(c1ccc(Cl)cc1)c1ccc(Cl)cc1)C2	7.58		4.18	50			
NCCN1[C@@H]2CC[C@H]1C[C@@H](NC(c1ccc(F)cc1)c1ccc(F)cc1)C2	3.55	169	10.9	2110			
O=C(CCN1[C@@H]2CC[C@H]1C[C@@H](OC(c1ccc(F)cc1)c1ccc(F)cc1)C2)Nc1ccccc1							6.22
Fc1ccc(C(N[C@H]2C[C@H]3CC[C@@H](C2)N3CCCCc2ccccc2)c2ccc(F)cc2)cc1	1.63	37	0.502	438	139	43	
CN1[C@@H]2CC[C@H]1C[C@@H](NC(c1ccc(F)cc1)c1ccc(F)cc1)C2	1.81	0.7	8.68	7.81	160	769	
NCCN1[C@@H]2CC[C@H]1C[C@@H](OC(c1ccc(F)cc1)c1ccc(F)cc1)C2							5.59
